Patent US20230217926A1, “SELECTIVE HERBICIDES BASED ON SUBSTITUTED ISOXAZOLIN CARBOXAMIDES AND ISOXADIFEN-ETHYL” (BAYER AKTIENGESELLSCHAFT, priority 2020, published 2023)
Where “and” joins values, the source holds several entries; their conditions need not be identical. Equal values may be shown once.

Experiments:
ZEAMA Sileno [1] = assay: Tank-mix post-emergence crop damage, greenhouse, visual assessment; type: in vivo, maize; design: key to Reduction [Difference]: % points: herbicide damage without safener − damage with safener; conditions: for HER effect + SAF / Reduction [%] / Reduction [Difference]: Final; for HER effect: no safener, Final assessment
Description: Seeds of crops (spring wheat, TRZAS; spring barley, HORVS; maize, ZEAMA) were placed in sandy loam soil in peat pots, covered with soil and cultivated in a greenhouse under good growth conditions. Two to three weeks after sowing, the test plants were treated at the 1 to 3-leaf stage. The herbicide/safener active compound combinations according to the invention, formulated as wettable powders or emulsion concentrates, and, in parallel tests, the correspondingly formulated individual active compounds were sprayed onto the green parts of the plants in various dosages using an amount of water of 300 l/ha (converted).
The pots were returned under good growing conditions in a glasshouse and a visual assessment of herbicidal effects was made at intervals from 1 to 3 weeks after herbicide application (DAT=days after treatment). Assessment was on a percentage basis in comparison with untreated control plants (0%=no injury, 100%=complete kill).
Reduction[Difference]=herbicide damage without safener−herbicide damage with safener Reduction[%]=(Reduction[Difference]*100)/herbicide damage without safener
a) Plant Species, Variety: ZEAMA Sileno, Safener (SAF): Isoxadifen-Ethyl

ZEAMA Sileno [2] = assay: Safener seed treatment, pre-emergence herbicide, crop damage; type: in vivo, maize; design: key to Reduction [Difference]: % crop damage without safener minus % damage with safener; conditions: HER 40 g a.i./ha pre-emergence; for Reduction [%] / Reduction [Difference]: isoxadifen-ethyl 0.25 g a.i./kg seed; for HER effect + SAF: isoxadifen-ethyl seed treatment 0.25 g a.i./kg seed; for HER effect: no safener
Description: For the safener seed treatment, sufficient seeds of the respective crops (spring wheat, TRZAS; spring barley, HORVS; maize, ZEAMA) were weighed into screw top glass bottles approximately twice the volume of the seeds.
The specified safeners, formulated as wettable powder (WP) were weighed out so that the specified rates (g a.i./kg seed) would be obtained, dissolved in water (1 ml water per 10 g of seeds), and added to the seeds to produce a slurry.
The bottles were capped and then placed in an overhead shaker (set at medium speed for ca. 60 minutes) so that the seeds were evenly coated with the slurry. The bottles were uncapped and the seeds were either placed on paper and dried for an interval of 3-4 hours prior to sowing, or directly sown. Seeds were placed in sandy loam soil in pots of a diameter of 7-8 cm, and covered with soil.
Pre-emergence application of the specified herbicides was done subsequently, on two sets of plants: a) seed treatment with safener, as described above
The herbicides were formulated as WP and was sprayed onto the soil surface as an aqueous suspension at an equivalent water application rate of 300 l/ha.
After application, the test plants were kept in the greenhouse under good growth conditions. At intervals up to 4 weeks after application (=28 days after treatment; DAT), % crop damage observed on the treated plants was scored visually in comparison to control plants that had not received any safener or herbicide treatment.
Values in the table below are mean values of at least 2 replicates.
Reduction[Difference]=herbicide damage without safener−herbicide damage with safener Reduction[%]=(Reduction[Difference]*100)/herbicide damage without safener […]
c) Plant Species, Variety: ZEAMA Sileno, Safener (SAF): Isoxadifen-Ethyl

[3] = HER 8 g a.i./ha + isoxadifen-ethyl 50 g a.i./ha
[4] = HER 8 g a.i./ha, isoxadifen-ethyl 50 g a.i./ha
[5] = HER 32 g a.i./ha + isoxadifen-ethyl 100 g a.i./ha
[6] = HER 32 g a.i./ha, isoxadifen-ethyl 100 g a.i./ha
[7] = HER 2 g a.i./ha, isoxadifen-ethyl 50 g a.i./ha

C=CCOC(=O)C1CC(NC(=O)C2(C)CC(c3cc(F)cc(F)c3)=NO2)CO1 (mixture of isomers) [Example 1.75]
HER effect + SAF (ZEAMA Sileno [1]; [3]): 23%
Reduction [%] (ZEAMA Sileno [1]; [4]): 68%
Reduction [Difference] (ZEAMA Sileno [1]; [4]): 50
HER effect (ZEAMA Sileno [1]; HER 8 g a.i./ha): 73%
HER effect + SAF (ZEAMA Sileno [1]; [5]): 43%
Reduction [%] (ZEAMA Sileno [1]; [6]): 51%
Reduction [Difference] (ZEAMA Sileno [1]; [6]): 45
HER effect (ZEAMA Sileno [1]; HER 32 g a.i./ha): 88%

C=CC1(C(=O)NC2COC(C(=O)OC)C2)CC(c2cc(F)cc(F)c2)=NO1 (stereo not shown) [Example 1.69]
Reduction [%] (ZEAMA Sileno [2]; 14 DAT): 42%
Reduction [Difference] (ZEAMA Sileno [2]; 14 DAT): 40
Reduction [%] (ZEAMA Sileno [2]; 26 DAT): 28%
Reduction [Difference] (ZEAMA Sileno [2]; 26 DAT): 25
HER effect + SAF (ZEAMA Sileno [2]; 14 DAT): 55%
HER effect + SAF (ZEAMA Sileno [2]; 26 DAT): 65%
HER effect (ZEAMA Sileno [2]; 14 DAT): 95%
HER effect (ZEAMA Sileno [2]; 26 DAT): 90%
HER effect + SAF (ZEAMA Sileno [1]; [3]): 33%
Reduction [%] (ZEAMA Sileno [1]; [4]): 64%
Reduction [Difference] (ZEAMA Sileno [1]; [4]): 59
HER effect (ZEAMA Sileno [1]; HER 8 g a.i./ha): 92%
HER effect + SAF (ZEAMA Sileno [1]; [5]): 30%
Reduction [%] (ZEAMA Sileno [1]; [6]): 68%
Reduction [Difference] (ZEAMA Sileno [1]; [6]): 63
HER effect (ZEAMA Sileno [1]; HER 32 g a.i./ha): 93%

COC(=O)C1C=CC(NC(=O)C2(C)CC(c3cc(Cl)cc(C#N)c3)=NO2)C1 (mixture of isomers) [Example 1.23]
HER effect + SAF (ZEAMA Sileno [1]; [3]): 30%
Reduction [%] (ZEAMA Sileno [1]; [4]): 40%
Reduction [Difference] (ZEAMA Sileno [1]; [4]): 20
HER effect (ZEAMA Sileno [1]; HER 8 g a.i./ha): 50%
HER effect + SAF (ZEAMA Sileno [1]; [5]): 30%
Reduction [%] (ZEAMA Sileno [1]; [6]): 57%
Reduction [Difference] (ZEAMA Sileno [1]; [6]): 40
HER effect (ZEAMA Sileno [1]; HER 32 g a.i./ha): 70%

C=CC1(C(=O)NC2COC(C(=O)OCCCl)C2)CC(c2cc(F)cc(F)c2)=NO1 (mixture of isomers) [Example 1.82]
HER effect + SAF (ZEAMA Sileno [1]; [3]): 65% and 53%
Reduction [%] (ZEAMA Sileno [1]; [4]): 28% and 43%
Reduction [Difference] (ZEAMA Sileno [1]; [4]): 25 and 40
HER effect (ZEAMA Sileno [1]; HER 8 g a.i./ha): 90% and 93%
HER effect + SAF (ZEAMA Sileno [1]; [5]): 75% and 55%
Reduction [%] (ZEAMA Sileno [1]; [6]): 22% and 40%
Reduction [Difference] (ZEAMA Sileno [1]; [6]): 21 and 37
HER effect (ZEAMA Sileno [1]; HER 32 g a.i./ha): 96% and 92%

CCOC(=O)C1C=CC(NC(=O)C2(CF)CC(c3cc(F)cc(F)c3)=NO2)C1 (stereo not shown) [Example 1.17]
HER effect + SAF (ZEAMA Sileno [1]; HER 2 g a.i./ha + isoxadifen-ethyl 50 g a.i./ha): 10%
Reduction [%] (ZEAMA Sileno [1]; [7]): 78%
Reduction [Difference] (ZEAMA Sileno [1]; [7]): 35
HER effect (ZEAMA Sileno [1]; HER 2 g a.i./ha, 0%=no injury, 100%=complete kill): 45%
HER effect + SAF (ZEAMA Sileno [1]; [3]): 20%
Reduction [%] (ZEAMA Sileno [1]; [4]): 79%
Reduction [Difference] (ZEAMA Sileno [1]; [4]): 75
HER effect (ZEAMA Sileno [1]; HER 8 g a.i./ha): 95%

CC1(C(=O)NC2C=CC(C(=O)OCCSCc3ccccc3)C2)CC(c2cc(F)cc(F)c2)=NO1 (stereo not shown) [Example 1.27]
HER effect + SAF (ZEAMA Sileno [1]; [5]): 30%
Reduction [%] (ZEAMA Sileno [1]; [6]): 50%
Reduction [Difference] (ZEAMA Sileno [1]; [6]): 30
HER effect (ZEAMA Sileno [1]; HER 32 g a.i./ha): 60%

CCOC(=O)C1=CCC(NC(=O)C2(C)CC(c3cccc(F)c3)=NO2)C1 (stereo not shown) [Example 1.59]
HER effect + SAF (ZEAMA Sileno [1]; [5]): 10%
Reduction [%] (ZEAMA Sileno [1]; [6]): 85%
Reduction [Difference] (ZEAMA Sileno [1]; [6]): 57
HER effect (ZEAMA Sileno [1]; HER 32 g a.i./ha): 67%

C=CC1(C(=O)NC2COC(C(=O)OCCOC)C2)CC(c2cc(F)cc(F)c2)=NO1 (mixture of isomers) [Example 1.66]
HER effect + SAF (ZEAMA Sileno [1]; [3]): 43%
Reduction [%] (ZEAMA Sileno [1]; [4]): 55%
Reduction [Difference] (ZEAMA Sileno [1]; [4]): 53
HER effect (ZEAMA Sileno [1]; HER 8 g a.i./ha): 96%
HER effect + SAF (ZEAMA Sileno [1]; [5]): 47%
Reduction [%] (ZEAMA Sileno [1]; [6]): 52%
Reduction [Difference] (ZEAMA Sileno [1]; [6]): 50
HER effect (ZEAMA Sileno [1]; HER 32 g a.i./ha): 97%
